{"source": "patent US20210316013A1", "about": "“HAEMATOPOIETIC STEM CELL-GENE THERAPY FOR WISKOTT-ALDRICH SYNDROME” (priority 2018, published 2021)", "tested_on": "Jurkat cells", "test": "Titration of 6TG dosing window, Jurkat cell viability", "type": "cell-based", "settings": "6TG 0.01-100 μM, viability after 2 days, cell counter TC20", "procedure": "Jurkat cells were incubated in a 96-well plate with different concentrations of 6TG (0.01-100 μM). After 2 days, viability of the cells was measured with cell counter TC20. Optimal 6TG dose for Jurkat cells was estimated to be approx. 504. A nominal concentration of 2.5 μM 6TG was elected for subsequent chemo-selection experiments. The results are illustrated in FIG. 20A.", "data": [{"smiles": "Nc1nc2nc[nH]c2c(=S)[nH]1", "note": "[Candidate 6TG, 6-thioguanine]", "values": [{"measurement": "Optimal 6TG dose for Jurkat cells", "result": "approx. 504"}]}]}
